Numbers after ± are expanded uncertainties.
Assays:
[1] = 308.15 K; 101 kPa; Liquid
[2] = xn = mol fraction of the nth substance listed; conditions: 308.15 K, 101 kPa, Liquid

Work on `ClC(Cl)C(Cl)Cl` [1,1,2,2-tetrachloroethane] yielded a mass density [1] of 1572.4 ± 2.9 kg/m3 and a viscosity [1] of 1.334 ± 0.033 mPa·s.
In the case of `ClC(Cl)C(Cl)Cl` [1,1,2,2-tetrachloroethane] + CNC(C)=O, the mass density ([2]; x2 = 0) is reported as 1572.4 ± 2.9 kg/m3 and the viscosity ([2]; x2 = 0) is reported as 1.334 ± 0.033 mPa·s.
`ClCC(Cl)Cl` [1,1,2-trichloroethane] showed a mass density [1] of 1416.1 ± 3.2 kg/m3 and a viscosity [1] of 0.903 ± 0.017 mPa·s.
`ClCC(Cl)Cl` [1,1,2-trichloroethane] + CNC(C)=O gave a mass density ([2]; x2 = 0) of 1416.1 ± 3.2 kg/m3, a viscosity ([2]; x2 = 0) of 0.903 ± 0.017 mPa·s and a mass density ([2]; x2 = 0.0706) of 1390.4 ± 3 kg/m3. The viscosity ([2]; x2 = 0.0706) was 1.003 ± 0.018 mPa·s, the mass density ([2]; x2 = 0.2356) was 1324.2 ± 2.6 kg/m3 and the viscosity ([2]; x2 = 0.2356) was 1.365 ± 0.022 mPa·s. The mass density ([2]; x2 = 0.3484) was 1276 ± 2.3 kg/m3, the viscosity ([2]; x2 = 0.3484) was 1.771 ± 0.026 mPa·s and the mass density ([2]; x2 = 0.452) was 1229.9 ± 2.1 kg/m3. The viscosity ([2]; x2 = 0.452) was 2.18 ± 0.03 mPa·s, the mass density ([2]; x2 = 0.5461) was 1186.3 ± 1.9 kg/m3 and the viscosity ([2]; x2 = 0.5461) was 2.537 ± 0.034 mPa·s. It also gave a mass density ([2]; x2 = 0.643) of 1139.1 ± 1.7 kg/m3, a viscosity ([2]; x2 = 0.643) of 2.88 ± 0.038 mPa·s and a mass density ([2]; x2 = 0.7345) of 1092.7 ± 1.6 kg/m3. The viscosity ([2]; x2 = 0.7345) was 3.105 ± 0.04 mPa·s, the mass density ([2]; x2 = 0.8235) was 1045.8 ± 1.4 kg/m3 and the viscosity ([2]; x2 = 0.8235) was 3.249 ± 0.041 mPa·s. It also gave a mass density ([2]; x2 = 0.9497) of 975.3 ± 1.3 kg/m3 and a viscosity ([2]; x2 = 0.9497) of 3.345 ± 0.041 mPa·s.
Compound `ClCCCl` [1,2-dichloroethane] has a mass density [1] of 1230.8 ± 1.7 kg/m3 and a viscosity [1] of 0.646 ± 0.013 mPa·s.
Work on `ClCCCl` [1,2-dichloroethane] + CNC(C)=O yielded a mass density ([2]; x2 = 0) of 1230.8 ± 1.7 kg/m3 and a viscosity ([2]; x2 = 0) of 0.646 ± 0.013 mPa·s.
In the case of `CNC(C)=O` [N-methylacetamide], the mass density [1] is reported as 945.9 ± 1.2 kg/m3 and the viscosity [1] is reported as 3.312 ± 0.04 mPa·s.
In the case of `CNC(C)=O` [N-methylacetamide] + ClC(Cl)=C(Cl)Cl, the mass density ([2]; x1 = 0.0571) is reported as 1573.5 ± 2.3 kg/m3, the viscosity ([2]; x1 = 0.0571) is reported as 0.801 ± 0.014 mPa·s and the mass density ([2]; x1 = 0.2569) is reported as 1463.9 ± 2.1 kg/m3. The viscosity ([2]; x1 = 0.2569) was 1.541 ± 0.021 mPa·s, the mass density ([2]; x1 = 0.3691) was 1396.5 ± 2 kg/m3 and the viscosity ([2]; x1 = 0.3691) was 1.895 ± 0.024 mPa·s. The mass density ([2]; x1 = 0.4749) was 1330.8 ± 1.8 kg/m3, the viscosity ([2]; x1 = 0.4749) was 2.195 ± 0.027 mPa·s and the mass density ([2]; x1 = 0.5719) was 1268.3 ± 1.7 kg/m3. For the same compound, the viscosity ([2]; x1 = 0.5719) was 2.411 ± 0.03 mPa·s, the mass density ([2]; x1 = 0.6637) was 1206.2 ± 1.6 kg/m3 and the viscosity ([2]; x1 = 0.6637) was 2.61 ± 0.032 mPa·s. The mass density ([2]; x1 = 0.7039) was 1178 ± 1.6 kg/m3, the viscosity ([2]; x1 = 0.7039) was 2.696 ± 0.033 mPa·s and the mass density ([2]; x1 = 0.8385) was 1078.2 ± 1.4 kg/m3. The viscosity ([2]; x1 = 0.8385) was 2.981 ± 0.037 mPa·s, the mass density ([2]; x1 = 0.9666) was 974.6 ± 1.2 kg/m3 and the viscosity ([2]; x1 = 0.9666) was 3.245 ± 0.04 mPa·s. It also gave a mass density ([2]; x1 = 1) of 945.9 ± 1.2 kg/m3 and a viscosity ([2]; x1 = 1) of 3.312 ± 0.04 mPa·s.
For `CNC(C)=O` [N-methylacetamide] + ClC(Cl)C(Cl)Cl, the mass density ([2]; x1 = 0.0621) was 1545.5 ± 2.8 kg/m3, the viscosity ([2]; x1 = 0.0621) was 1.499 ± 0.037 mPa·s and the mass density ([2]; x1 = 0.2627) was 1450.5 ± 2.4 kg/m3. It also gave a viscosity ([2]; x1 = 0.2627) of 2.226 ± 0.053 mPa·s, a mass density ([2]; x1 = 0.3728) of 1393 ± 2.2 kg/m3 and a viscosity ([2]; x1 = 0.3728) of 2.726 ± 0.064 mPa·s. It also gave a mass density ([2]; x1 = 0.4796) of 1331.6 ± 2 kg/m3, a viscosity ([2]; x1 = 0.4796) of 3.398 ± 0.078 mPa·s and a mass density ([2]; x1 = 0.5797) of 1268.9 ± 1.9 kg/m3. The viscosity ([2]; x1 = 0.5797) was 3.936 ± 0.09 mPa·s, the mass density ([2]; x1 = 0.6722) was 1206.5 ± 1.7 kg/m3 and the viscosity ([2]; x1 = 0.6722) was 4.291 ± 0.097 mPa·s. For the same compound, the mass density ([2]; x1 = 0.7594) was 1143.7 ± 1.6 kg/m3, the viscosity ([2]; x1 = 0.7594) was 4.404 ± 0.099 mPa·s and the mass density ([2]; x1 = 0.8413) was 1080.7 ± 1.5 kg/m3. It also gave a viscosity ([2]; x1 = 0.8413) of 4.036 ± 0.091 mPa·s, a mass density ([2]; x1 = 0.9679) of 974.8 ± 1.2 kg/m3 and a viscosity ([2]; x1 = 0.9679) of 3.533 ± 0.08 mPa·s. For the same compound, the mass density ([2]; x1 = 1) was 945.9 ± 1.2 kg/m3 and the viscosity ([2]; x1 = 1) was 3.312 ± 0.075 mPa·s.
`CNC(C)=O` [N-methylacetamide] + ClC=C(Cl)Cl gave a mass density ([2]; x1 = 0.0514) of 1417.9 ± 2 kg/m3, a viscosity ([2]; x1 = 0.0514) of 0.564 ± 0.013 mPa·s and a mass density ([2]; x1 = 0.2353) of 1340.4 ± 1.9 kg/m3. It also gave a viscosity ([2]; x1 = 0.2353) of 1.015 ± 0.016 mPa·s, a mass density ([2]; x1 = 0.3404) of 1293.3 ± 1.8 kg/m3 and a viscosity ([2]; x1 = 0.3404) of 1.291 ± 0.018 mPa·s. For the same compound, the mass density ([2]; x1 = 0.4437) was 1244.6 ± 1.7 kg/m3, the viscosity ([2]; x1 = 0.4437) was 1.578 ± 0.021 mPa·s and the mass density ([2]; x1 = 0.5419) was 1196.4 ± 1.6 kg/m3. For the same compound, the viscosity ([2]; x1 = 0.5419) was 1.856 ± 0.024 mPa·s, the mass density ([2]; x1 = 0.6357) was 1148.5 ± 1.5 kg/m3 and the viscosity ([2]; x1 = 0.6357) was 2.15 ± 0.027 mPa·s. It also gave a mass density ([2]; x1 = 0.7288) of 1099.4 ± 1.4 kg/m3, a viscosity ([2]; x1 = 0.7288) of 2.45 ± 0.03 mPa·s and a mass density ([2]; x1 = 0.8196) of 1049.9 ± 1.4 kg/m3. It also gave a viscosity ([2]; x1 = 0.8196) of 2.74 ± 0.034 mPa·s, a mass density ([2]; x1 = 0.9692) of 964.4 ± 1.2 kg/m3 and a viscosity ([2]; x1 = 0.9692) of 3.215 ± 0.039 mPa·s. It also gave a mass density ([2]; x1 = 1) of 945.9 ± 1.2 kg/m3 and a viscosity ([2]; x1 = 1) of 3.312 ± 0.04 mPa·s.
For `CNC(C)=O` [N-methylacetamide] + ClCC(Cl)Cl, the mass density ([2]; x1 = 1) was 945.9 ± 1.2 kg/m3 and the viscosity ([2]; x1 = 1) was 3.312 ± 0.04 mPa·s.
With `CNC(C)=O` [N-methylacetamide] + ClCCCl the mass density ([2]; x1 = 0.063) was 1213.8 ± 1.6 kg/m3, the viscosity ([2]; x1 = 0.063) was 0.705 ± 0.014 mPa·s and the mass density ([2]; x1 = 0.134) was 1194.7 ± 1.6 kg/m3. The viscosity ([2]; x1 = 0.134) was 0.785 ± 0.014 mPa·s, the mass density ([2]; x1 = 0.2632) was 1159.1 ± 1.5 kg/m3 and the viscosity ([2]; x1 = 0.2632) was 1.024 ± 0.016 mPa·s. For the same compound, the mass density ([2]; x1 = 0.3875) was 1124.3 ± 1.5 kg/m3, the viscosity ([2]; x1 = 0.3875) was 1.342 ± 0.019 mPa·s and the mass density ([2]; x1 = 0.4442) was 1108.2 ± 1.4 kg/m3. The viscosity ([2]; x1 = 0.4442) was 1.5 ± 0.02 mPa·s, the mass density ([2]; x1 = 0.5064) was 1090.5 ± 1.4 kg/m3 and the viscosity ([2]; x1 = 0.5064) was 1.694 ± 0.022 mPa·s. For the same compound, the mass density ([2]; x1 = 0.6863) was 1038.5 ± 1.3 kg/m3, the viscosity ([2]; x1 = 0.6863) was 2.245 ± 0.028 mPa·s and the mass density ([2]; x1 = 0.807) was 1003.1 ± 1.3 kg/m3. It also gave a viscosity ([2]; x1 = 0.807) of 2.651 ± 0.033 mPa·s, a mass density ([2]; x1 = 0.931) of 966.5 ± 1.2 kg/m3 and a viscosity ([2]; x1 = 0.931) of 3.083 ± 0.038 mPa·s. It also gave a mass density ([2]; x1 = 1) of 945.9 ± 1.2 kg/m3 and a viscosity ([2]; x1 = 1) of 3.312 ± 0.04 mPa·s.
With `ClC(Cl)=C(Cl)Cl` [tetrachloroethene] the mass density [1] was 1599.2 ± 2.3 kg/m3 and the viscosity [1] was 0.723 ± 0.014 mPa·s.
In the case of `ClC(Cl)=C(Cl)Cl` [tetrachloroethene] + CNC(C)=O, the mass density ([2]; x2 = 0) is reported as 1599.2 ± 2.3 kg/m3 and the viscosity ([2]; x2 = 0) is reported as 0.723 ± 0.014 mPa·s.
`ClC=C(Cl)Cl` [trichloroethene] gave a mass density [1] of 1438.5 ± 2 kg/m3 and a viscosity [1] of 0.46 ± 0.012 mPa·s.
`ClC=C(Cl)Cl` [trichloroethene] + CNC(C)=O gave a mass density ([2]; x2 = 0) of 1438.5 ± 2 kg/m3 and a viscosity ([2]; x2 = 0) of 0.46 ± 0.012 mPa·s.

— the NIST ThermoML archive (doi:10.1016/j.jct.2006.06.009)
